# Source: ChEMBL document CHEMBL1201862, “PubChem BioAssay data set” (2004)
# Calls of active or inactive are those of the source.
# Legend:
# [1] = biological target: T1, Corticotropin-releasing factor receptor 2/Corticotropin-releasing factor-binding protein (Homo sapiens, UniProt P24387+Q13324); test: Dose Response confirmation of uHTS hits for small molecule antagonists of the CRF-binding protein and CRF-R2 receptor complex.; format: functional; conditions: read-out: IC50_Mean
# T1 sequence (Q13324 whole entry): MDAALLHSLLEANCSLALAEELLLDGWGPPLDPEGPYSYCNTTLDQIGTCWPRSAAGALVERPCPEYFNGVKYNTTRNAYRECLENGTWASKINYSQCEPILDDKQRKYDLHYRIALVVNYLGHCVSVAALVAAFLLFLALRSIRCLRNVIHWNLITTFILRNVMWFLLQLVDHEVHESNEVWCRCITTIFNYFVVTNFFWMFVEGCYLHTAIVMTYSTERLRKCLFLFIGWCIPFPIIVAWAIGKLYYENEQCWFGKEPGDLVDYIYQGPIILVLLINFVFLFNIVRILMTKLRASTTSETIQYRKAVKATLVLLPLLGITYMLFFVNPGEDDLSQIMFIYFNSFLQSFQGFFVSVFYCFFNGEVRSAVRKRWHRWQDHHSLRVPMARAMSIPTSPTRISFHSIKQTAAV
# T1 sequence (P24387 whole entry): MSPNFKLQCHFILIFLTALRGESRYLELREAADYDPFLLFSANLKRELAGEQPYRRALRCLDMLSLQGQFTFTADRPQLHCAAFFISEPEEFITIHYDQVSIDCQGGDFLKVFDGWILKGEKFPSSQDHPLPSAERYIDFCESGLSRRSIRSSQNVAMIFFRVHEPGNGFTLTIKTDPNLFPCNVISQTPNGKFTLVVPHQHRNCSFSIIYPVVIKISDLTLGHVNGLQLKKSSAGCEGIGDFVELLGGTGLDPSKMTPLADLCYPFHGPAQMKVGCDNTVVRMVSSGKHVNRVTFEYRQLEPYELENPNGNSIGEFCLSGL
# [2] = biological target: T1, Corticotropin-releasing factor receptor 2/Corticotropin-releasing factor-binding protein; test: activators of CRF receptor 2 with binding protein – uHTS hits, confirmation (AID 602473); format: functional; conditions: read-out: EC50_Mean
# [3] = CRF-BP/CRF-R2 complex antagonists, dose response, cell-based, uHTS hits, 384-well (AID 651639); format: functional, Homo sapiens; conditions: read-out: IC50_Mean
# Steroidogenic factor 1 = Steroidogenic factor 1 (Homo sapiens, UniProt Q13285); test: Counterscreen for inverse agonists of the liver receptor homolog-1 (LRH-1; NR5A2): Luminescence-based cell-based high throughput dose response assay to identify inverse agonists of the Steroidogenic Factor 1 Nuclear Receptor (SF1; NR5A1).; format: functional
# Sequence of Steroidogenic factor 1 (Q13285 whole entry): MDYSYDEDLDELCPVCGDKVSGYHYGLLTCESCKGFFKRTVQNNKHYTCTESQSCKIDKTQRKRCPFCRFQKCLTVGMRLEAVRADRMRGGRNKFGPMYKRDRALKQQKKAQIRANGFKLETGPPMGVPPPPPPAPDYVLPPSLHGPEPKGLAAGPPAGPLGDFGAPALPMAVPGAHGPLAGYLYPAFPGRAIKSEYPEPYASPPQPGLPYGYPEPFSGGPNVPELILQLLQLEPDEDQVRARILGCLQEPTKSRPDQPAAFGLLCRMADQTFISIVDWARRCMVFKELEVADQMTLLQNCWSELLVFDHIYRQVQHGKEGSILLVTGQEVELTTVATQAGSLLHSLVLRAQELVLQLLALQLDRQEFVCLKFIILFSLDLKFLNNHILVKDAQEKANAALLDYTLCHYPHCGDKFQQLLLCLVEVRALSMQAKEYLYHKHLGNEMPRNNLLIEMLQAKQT
# [4] = StAR promoter reporter inhibition counter-screen, dose response, counter-screen for LRH-1 inverse agonist project, cell-based, luminescence, luciferase reporter (AID 651969); format: functional
# [5] = biological target: Nuclear receptor subfamily 5 group A member 2 (Homo sapiens, UniProt O00482); format: functional, cell-based;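 further: HEK293T cells transfected with LRH-1 and a StAR promoter luciferase reporter; potency for inhibitors that lower LRH-1 driven reporter light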
# Sequence of Nuclear receptor subfamily 5 group A member 2 (O00482 whole entry): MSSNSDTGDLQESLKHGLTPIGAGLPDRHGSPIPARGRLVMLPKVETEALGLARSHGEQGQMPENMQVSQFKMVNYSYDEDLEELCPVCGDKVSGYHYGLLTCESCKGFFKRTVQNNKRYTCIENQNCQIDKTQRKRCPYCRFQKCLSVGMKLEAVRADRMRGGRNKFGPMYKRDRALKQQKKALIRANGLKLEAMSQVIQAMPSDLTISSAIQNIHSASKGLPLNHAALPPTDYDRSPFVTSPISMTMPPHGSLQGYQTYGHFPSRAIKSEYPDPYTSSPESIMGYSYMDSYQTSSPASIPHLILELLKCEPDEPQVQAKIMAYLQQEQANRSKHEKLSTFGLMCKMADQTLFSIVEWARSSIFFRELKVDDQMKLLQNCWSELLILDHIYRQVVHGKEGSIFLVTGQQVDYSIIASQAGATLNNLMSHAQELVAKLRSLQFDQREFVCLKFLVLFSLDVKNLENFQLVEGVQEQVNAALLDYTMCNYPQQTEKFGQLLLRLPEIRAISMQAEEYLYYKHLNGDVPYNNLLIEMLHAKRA
# Galanin receptor type 3 = biological target: T2, Galanin receptor type 3 (Homo sapiens, UniProt O60755); test: Fluorescence-based cell-based primary high throughput dose response assay to identify antagonists of the Galanin Receptor 3 (GalR3).; format: functional
# T2 sequence (O60755 whole entry): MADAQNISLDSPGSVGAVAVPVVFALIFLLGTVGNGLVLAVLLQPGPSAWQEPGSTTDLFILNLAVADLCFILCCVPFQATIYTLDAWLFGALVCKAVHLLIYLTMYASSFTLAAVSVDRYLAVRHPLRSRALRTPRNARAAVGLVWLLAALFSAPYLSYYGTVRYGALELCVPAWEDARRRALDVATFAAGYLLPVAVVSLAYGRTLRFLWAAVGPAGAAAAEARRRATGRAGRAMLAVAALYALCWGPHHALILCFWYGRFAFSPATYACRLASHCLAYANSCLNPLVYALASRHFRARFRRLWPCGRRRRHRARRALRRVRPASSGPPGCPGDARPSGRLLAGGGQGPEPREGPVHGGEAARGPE
# cells = format: functional, cell-based; conditions: HEK-CNG
# [6] = biological target: Metabotropic glutamate receptor 5 (Rattus norvegicus, UniProt P31424); test: Identification of a glycine sulfonamide based non-MPEP site positive allosteric potentiator (PAM) of mGlu5 (calcium_assay).; format: functional
# Sequence of Metabotropic glutamate receptor 5 (P31424 whole entry): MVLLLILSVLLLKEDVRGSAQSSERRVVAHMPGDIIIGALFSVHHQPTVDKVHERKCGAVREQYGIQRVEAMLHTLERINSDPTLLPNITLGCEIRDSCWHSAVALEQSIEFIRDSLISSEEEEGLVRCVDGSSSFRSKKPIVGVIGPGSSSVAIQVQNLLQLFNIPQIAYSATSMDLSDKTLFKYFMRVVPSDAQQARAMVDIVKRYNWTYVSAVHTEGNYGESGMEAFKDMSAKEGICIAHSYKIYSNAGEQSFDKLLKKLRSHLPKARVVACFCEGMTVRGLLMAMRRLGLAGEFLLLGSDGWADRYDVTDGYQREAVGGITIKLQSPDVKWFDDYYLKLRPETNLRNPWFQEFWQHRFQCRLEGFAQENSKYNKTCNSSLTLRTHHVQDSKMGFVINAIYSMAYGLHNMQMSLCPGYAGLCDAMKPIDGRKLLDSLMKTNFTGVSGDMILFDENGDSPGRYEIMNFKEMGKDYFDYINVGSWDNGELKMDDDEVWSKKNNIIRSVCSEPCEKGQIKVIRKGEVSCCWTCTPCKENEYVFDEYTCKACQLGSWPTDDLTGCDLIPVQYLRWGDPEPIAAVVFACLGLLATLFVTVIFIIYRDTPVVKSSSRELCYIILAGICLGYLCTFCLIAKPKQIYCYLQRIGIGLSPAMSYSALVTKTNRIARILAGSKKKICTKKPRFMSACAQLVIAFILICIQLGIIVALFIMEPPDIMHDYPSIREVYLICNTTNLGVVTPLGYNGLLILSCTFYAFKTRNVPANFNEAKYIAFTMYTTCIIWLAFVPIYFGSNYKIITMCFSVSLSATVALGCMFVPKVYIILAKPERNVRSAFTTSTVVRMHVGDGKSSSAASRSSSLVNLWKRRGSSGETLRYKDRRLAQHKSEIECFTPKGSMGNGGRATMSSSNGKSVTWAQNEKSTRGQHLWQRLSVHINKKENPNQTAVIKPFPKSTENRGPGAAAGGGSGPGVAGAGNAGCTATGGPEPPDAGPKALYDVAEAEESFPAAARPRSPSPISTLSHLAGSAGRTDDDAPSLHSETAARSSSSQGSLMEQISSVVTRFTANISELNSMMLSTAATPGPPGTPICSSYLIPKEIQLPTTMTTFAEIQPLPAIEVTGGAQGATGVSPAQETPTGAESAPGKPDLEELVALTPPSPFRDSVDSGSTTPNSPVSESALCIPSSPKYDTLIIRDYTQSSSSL
# [7] = ADAM10 protease inhibitors, dose response, selectivity assay for ADAM17 exosite inhibitor project, biochemical, FRET peptide substrate, recombinant human ADAM10 (AID 743259);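 further: ADAM10 enzyme cleaving a FRET peptide substrate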
# [8] = biological target: Disintegrin and metalloproteinase domain-containing protein 17 (Homo sapiens, UniProt P78536); test: exosite inhibitors of ADAM17, dose response, biochemical (AID 743260)
# Sequence of Disintegrin and metalloproteinase domain-containing protein 17 (P78536 whole entry, the tested form may be a part): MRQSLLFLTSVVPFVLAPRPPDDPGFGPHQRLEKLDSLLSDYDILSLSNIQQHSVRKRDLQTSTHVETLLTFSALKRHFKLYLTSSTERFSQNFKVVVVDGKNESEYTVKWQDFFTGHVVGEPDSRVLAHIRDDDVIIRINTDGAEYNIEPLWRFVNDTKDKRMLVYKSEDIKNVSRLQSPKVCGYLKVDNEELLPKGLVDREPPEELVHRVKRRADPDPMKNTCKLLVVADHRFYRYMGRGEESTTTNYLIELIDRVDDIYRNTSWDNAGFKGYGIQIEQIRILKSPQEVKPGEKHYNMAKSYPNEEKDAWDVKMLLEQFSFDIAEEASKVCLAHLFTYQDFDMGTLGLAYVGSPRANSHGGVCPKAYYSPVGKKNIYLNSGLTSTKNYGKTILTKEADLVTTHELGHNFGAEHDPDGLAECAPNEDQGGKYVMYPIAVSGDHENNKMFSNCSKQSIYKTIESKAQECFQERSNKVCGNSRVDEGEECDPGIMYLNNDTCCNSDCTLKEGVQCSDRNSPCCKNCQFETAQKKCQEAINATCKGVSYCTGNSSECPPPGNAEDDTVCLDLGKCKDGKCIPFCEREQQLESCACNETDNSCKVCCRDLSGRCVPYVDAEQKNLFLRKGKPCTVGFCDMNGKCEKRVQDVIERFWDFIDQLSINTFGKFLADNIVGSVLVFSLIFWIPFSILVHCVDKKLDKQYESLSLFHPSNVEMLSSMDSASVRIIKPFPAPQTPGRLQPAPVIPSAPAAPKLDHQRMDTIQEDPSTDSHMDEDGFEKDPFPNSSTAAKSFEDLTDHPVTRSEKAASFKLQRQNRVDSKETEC
# [9] = Luminescence Cell-Based Dose Retest to Confirm Inhibitors of Cancer Stem Cells. [Related pubchem assays (depositor defined):AID2717, AID2721]; format: functional; conditions: Homo sapiens
# [10] = biological target: FAD-linked sulfhydryl oxidase ALR (Homo sapiens, UniProt P55789); test: inhibitors of human ALR sulfhydryl oxidase, dose response, biochemical, H2O2 detection, luminescence, cherry-pick (AID 493248)
# Sequence of FAD-linked sulfhydryl oxidase ALR (P55789 whole entry): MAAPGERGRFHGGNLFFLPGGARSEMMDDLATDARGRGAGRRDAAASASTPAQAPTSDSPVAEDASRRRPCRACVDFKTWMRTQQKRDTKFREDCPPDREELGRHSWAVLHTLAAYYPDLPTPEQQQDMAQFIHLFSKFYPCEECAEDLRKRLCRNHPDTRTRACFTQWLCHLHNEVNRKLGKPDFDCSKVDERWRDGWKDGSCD
# [11] = miR-122 activators in hepatoma reporter cells, dose response, cell-based, Huh7 psiCHECK-miR122, Renilla luciferase, cherry-picked (AID 651956); format: functional;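 further: huh7 hepatoma cells stably carrying a psiCHECK-2 miR-122 sensor plasmid; renilla luciferase signal reporting endogenous miR-122 activity after 48 h compound exposure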
# [12] = HEK293T cytotoxicity, dose response, cytotoxicity control for miR-122 modulator project, cell-based, inhibitor set, cherry-pick, set 2 (AID 720697); format: functional
compound,measurement,setting,value
COc1cccc(NC(=O)c2cc(S(=O)(=O)N3CCc4ccccc43)cn2C)c1,IC50,[1],< 0.368 µM (active)
same,EC50,[2],> 53 µM (inactive)
same,IC50,[3],> 20 µM (inactive)
CCc1cc(=O)oc2c(C)c(OCC(=O)NCCCN3CCCC3=O)ccc12,IC50,Steroidogenic factor 1,35.9 µM (inactive)
same,IC50,[4],35.9 µM (inactive)
same,IC50,[5],35.9 µM (inactive)
CCOC(=O)c1[nH]c2ccc(OC)cc2c1NS(=O)(=O)c1ccc(Cl)s1,IC50,Galanin receptor type 3,1.45 µM (active)
same,EC50,cells,> 29.9 µM (inactive)
CS(=O)(=O)N(CC(=O)Nc1ccccc1)c1ccccc1Cl,EC50,[6],0.049 µM
O=C(O)CCC(=O)c1c[nH]c2ccccc12,IC50,[7],> 69.5 µM (inactive)
same,IC50,[8],24.9 µM (inactive)
C/C(=N/Nc1ccc([N+](=O)[O-])cc1)c1ccc(C)cc1C,IC50,[7],20.5 µM (inactive)
same,AC50,[9],5.92 µM (active)
same,IC50,[8],> 69.5 µM (inactive)
CS(=O)(=O)N1c2ccccc2CCC1C(=O)Nc1nccs1 (stereo not drawn),EC50,[6],4.43 µM
Cc1nc2c(C)cccc2cc1C(=O)N/N=C/c1ccc(O)cc1,AC50,[10],0.025 µM (active)
same,IC50,[1],33.1 µM (active)
same,EC50,[2],> 53 µM (inactive)
same,IC50,[3],> 20 µM (inactive)
CN(C)c1ncnc2c1ncn2C1OC(CO)C(O)C1O (stereo not drawn),AC50,[11],25.4 µM (active)
same,AC50,[12],8.52 µM (active)
Cn1c(C(=O)NN)cc2cc(Oc3ccccc3)ccc21,IC50,Galanin receptor type 3,8.17 µM (active)
same,EC50,cells,> 29.9 µM (inactive)
